Assay results taken from ChEMBL document CHEMBL3045480, “Goat brain enkephalin degrading enzyme: interaction with analgesic and antihypertensive drugs” (Med Chem Res, 2011).

Biological target: T1, Dipeptidyl peptidase 3 (Bos mutus) (UniProt L8I2E6)
T1 sequence (whole entry): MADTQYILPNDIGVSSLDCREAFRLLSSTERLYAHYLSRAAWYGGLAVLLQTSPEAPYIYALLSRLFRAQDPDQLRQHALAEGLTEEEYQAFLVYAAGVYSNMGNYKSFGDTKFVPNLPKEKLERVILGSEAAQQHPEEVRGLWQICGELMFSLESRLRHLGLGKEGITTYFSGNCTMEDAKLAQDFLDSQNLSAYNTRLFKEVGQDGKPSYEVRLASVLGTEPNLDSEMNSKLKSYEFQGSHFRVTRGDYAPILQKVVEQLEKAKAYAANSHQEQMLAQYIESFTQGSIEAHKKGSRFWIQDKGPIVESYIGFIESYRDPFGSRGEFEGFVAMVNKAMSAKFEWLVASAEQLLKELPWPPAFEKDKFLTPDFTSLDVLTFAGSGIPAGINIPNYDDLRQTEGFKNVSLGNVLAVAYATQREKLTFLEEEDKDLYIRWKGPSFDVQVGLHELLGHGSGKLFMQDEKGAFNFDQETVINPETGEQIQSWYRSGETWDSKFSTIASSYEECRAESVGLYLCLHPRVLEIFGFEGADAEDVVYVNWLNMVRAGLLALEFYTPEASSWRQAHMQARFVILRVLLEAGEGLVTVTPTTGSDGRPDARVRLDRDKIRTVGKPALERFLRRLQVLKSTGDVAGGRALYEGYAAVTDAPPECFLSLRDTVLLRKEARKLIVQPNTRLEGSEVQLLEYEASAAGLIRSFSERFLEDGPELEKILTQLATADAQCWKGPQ
Test: Inhibition of Capra hircus (goat) brain DPP-3 using Arg-Arg-4mbetaNA as substrate assessed as liberation of 4mbetaNA from substrate
Conditions: target entry is the homologue from another species

CC(=O)Nc1ccc(O)cc1
inhibition: 96%

CS(=O)(=O)c1ccc(C2=C(c3ccccc3)C(=O)OC2)cc1
inhibition: 71%

O=C(O)Cc1ccccc1Nc1c(Cl)cccc1Cl
inhibition: 85%
